Where a name gives a salt, the structure may show the parent alone. Marks after values point to notes of the source that are not given here.
How the values were obtained:
rabbit cortex = assay: Quantitative EEG, rabbit cortex, intravenous administration; assay type: in vivo, rabbits; details: for group percent change in electrical energy from pre-drug control, Δ band / mean change ± S.E. in electrical energy from pre-drug control, Δ band: Δ = 0.5-3.5 Hz; for group percent change in electrical energy from pre-drug control, α band / mean change ± S.E. in electrical energy from pre-drug control, α band: α= 7-13 Hz; for group percent change in electrical energy from pre-drug control, β band / mean change ± S.E. in electrical energy from pre-drug control, β band: β= 13-25 Hz; for group percent change in electrical energy from pre-drug control, γ band / mean change ± S.E. in electrical energy from pre-drug control, γ band: γ= 25-40 Hz; for group percent change in electrical energy from pre-drug control, θ band / mean change ± S.E. in electrical energy from pre-drug control, θ band: θ= 3.5-7.0 Hz
How it was run: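 Restrained rabbits with cortical leads had EEG split into Δ, ϑ, α, β and γ bands and integrated over 1 h from the moment of i.v. injection, in saline, dosed as free base. Counts were compared with each animal's own pretreatment control by paired t-test (p≦0.05). Doses were reduced geometrically to a no-effect level.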

[1] = test system: fronto-occipital cortex of the cat; assay: Quantitative EEG, fronto-occipital cat cortex, subcutaneous administration; assay type: in vivo, cats; details: for EEG profile: cat cortex; for group percent change in electrical energy from pre-drug control, Δ band / mean change ± S.E. in electrical energy from pre-drug control, Δ band / group percent change in electrical energy from pre-drug control, α band / mean change ± S.E. in electrical energy from pre-drug control, α band / group percent change in electrical energy from pre-drug control, β band / mean change ± S.E. in electrical energy from pre-drug control, β band / group percent change in electrical energy from pre-drug control, γ band / mean change ± S.E. in electrical energy from pre-drug control, γ band / group percent change in electrical energy from pre-drug control, θ band / mean change ± S.E. in electrical energy from pre-drug control, θ band: fronto-occipital cat cortex; for group percent change in electrical energy from pre-drug control, α band / mean change ± S.E. in electrical energy from pre-drug control, α band: α= 7-13 Hz; for group percent change in electrical energy from pre-drug control, β band / mean change ± S.E. in electrical energy from pre-drug control, β band: β= 13-25 Hz; for group percent change in electrical energy from pre-drug control, γ band / mean change ± S.E. in electrical energy from pre-drug control, γ band: γ= 25-40 Hz; for group percent change in electrical energy from pre-drug control, θ band / mean change ± S.E. in electrical energy from pre-drug control, θ band: θ= 3.5-7.0 Hz
How it was run: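 Adult female mongrel cats (n=6 per group) with implanted electrodes were recorded while held in restraining bags, with EEG filtered into Δ, ϑ, α, β and γ bands and integrated as energy counts. Drugs were given subcutaneously in saline, with doses calculated as free base, and recording started 30 min post-injection. Changes from each animal's pre-treatment control were tested by paired Student t-test (P≦0.05).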

[2] = test system: attention deficit hyperactivity disorder; assay: Treatment of children with attention deficit hyperactivity disorder (Examples 1 and 2); assay type: in vivo, child
Procedure: Buspirone is administered to a person, who has been identified by a clinician as having the symptoms associated with attention deficit hyperactivity disorder. During treatment, the child received […] of buspirone twice a day.
Buspirone is administered to a person, who has been identified by a clinician as having the symptoms associated with attention deficit hyperactivity disorder. During the treatment, the child received […] of buspirone three times a day.

[3] = test system: evoked electrographic activity; details: limited number of cats; John, et al, 1973; cited from earlier work
[4] = rabbit cortex, 0.25 mg/kg free base i.v.
[5] = rabbit cortex, 0.50 mg/kg free base i.v.
[6] = Δ = 0.05-35 Hz, 0.125 mg/kg free base s.c.
[7] = Δ = 0.05-35 Hz, 0.5 mg/kg free base s.c.
[8] = Δ = 0.5-3.5 Hz, 0.25 mg/kg free base s.c.
[9] = Δ = 0.5-3.5 Hz, 2.0 mg/kg free base s.c.
[10] = Δ = 0.5-3.5 Hz, 8.0 mg/kg free base s.c.
[11] = child with symptoms of attention deficit hyperactivity disorder, 5 mg/kg twice a day

SMILES: O=C1CC2(CCCC2)CC(=O)N1CCCCN1CCN(c2ncccn2)CC1 [Buspirone HCl, buspirone hydrochloride]
- minimal effective dose (rabbit cortex; Oryctolagus cuniculus, iv, rabbit cortex EEG, dose of free base, read-out: the minimum dose required to produce the EEG profile characteristic of that particular drug): 0.5 mg/kg
- the no-effect dose (rabbit cortex; rabbit cortex EEG, dose of free base): 0.25† mg/kg, i.v.
- EEG profile (rabbit cortex; rabbit cortex, i.v.): shares a component of stimulation similar to that of methylphenidate and dextroamphetamine
- group percent change in electrical energy from pre-drug control, Δ band (rabbit cortex; [4]): 0%
- mean change ± S.E. in electrical energy from pre-drug control, Δ band (rabbit cortex; [4]): -1 ± 18 instrument counts
- group percent change in electrical energy from pre-drug control, Δ band (rabbit cortex; [5]): -34%
- mean change ± S.E. in electrical energy from pre-drug control, Δ band (rabbit cortex; [5]): -114 ± 25 instrument counts
- group percent change in electrical energy from pre-drug control, α band (rabbit cortex; [4]): -1%
- mean change ± S.E. in electrical energy from pre-drug control, α band (rabbit cortex; [4]): -2 ± 12 instrument counts
- group percent change in electrical energy from pre-drug control, α band (rabbit cortex; [5]): -32%
- mean change ± S.E. in electrical energy from pre-drug control, α band (rabbit cortex; [5]): -70 ± 13 instrument counts
- group percent change in electrical energy from pre-drug control, β band (rabbit cortex; [4]): -4%
- mean change ± S.E. in electrical energy from pre-drug control, β band (rabbit cortex; [4]): -5 ± 7 instrument counts
- group percent change in electrical energy from pre-drug control, β band (rabbit cortex; [5]): -28%
- mean change ± S.E. in electrical energy from pre-drug control, β band (rabbit cortex; [5]): -47 ± 10 instrument counts
- group percent change in electrical energy from pre-drug control, γ band (rabbit cortex; [4]): -5%
- mean change ± S.E. in electrical energy from pre-drug control, γ band (rabbit cortex; [4]): -5 ± 2 instrument counts
- group percent change in electrical energy from pre-drug control, γ band (rabbit cortex; [5]): -14%
- mean change ± S.E. in electrical energy from pre-drug control, γ band (rabbit cortex; [5]): -17 ± 3 instrument counts
- group percent change in electrical energy from pre-drug control, θ band (rabbit cortex; [4]): -5%
- mean change ± S.E. in electrical energy from pre-drug control, θ band (rabbit cortex; [4]): -10 ± 14 instrument counts
- group percent change in electrical energy from pre-drug control, θ band (rabbit cortex; [5]): -35%
- mean change ± S.E. in electrical energy from pre-drug control, θ band (rabbit cortex; [5]): -86 ± 11 instrument counts
- minimal effective dose ([1]; Felis catus, sc, fronto-occipital cat cortex EEG, dose of free base, read-out: the minimum dose required to produce the EEG profile characteristic of that particular drug): 0.25 mg/kg
- doses required to produce the combined antipsychotic-stimulant EEG profile ([1]; cat cortex EEG, s.c.): at least twice that of thioridazine and chlorpromazine
- EEG profile ([1]; 8.0 mg/kg dose, s.c.): causes an increase in electrical "power" in the lowest frequency bands
- EEG profile ([1]; higher dose (2.0 and 8.0 mg/kg, s.c.)): elicit a profile which deviates from that produced by the stimulants
- the no-effect dose ([1]; fronto-occipital cat cortex EEG, dose of free base): 0.125† mg/kg, s.c.
- group percent change in electrical energy from pre-drug control, Δ band [1, 6]: -21%
- mean change ± S.E. in electrical energy from pre-drug control, Δ band [1, 6]: -46 ± 27 instrument counts
- group percent change in electrical energy from pre-drug control, Δ band [1, 7]: -14%
- mean change ± S.E. in electrical energy from pre-drug control, Δ band [1, 7]: -31 ± 18 instrument counts
- group percent change in electrical energy from pre-drug control, Δ band [1, 8]: +5%
- mean change ± S.E. in electrical energy from pre-drug control, Δ band [1, 8]: +10 ± 8 instrument counts
- group percent change in electrical energy from pre-drug control, Δ band [1, 9]: +15%
- mean change ± S.E. in electrical energy from pre-drug control, Δ band [1, 9]: +30 ± 22 instrument counts
- group percent change in electrical energy from pre-drug control, Δ band [1, 10]: +55%
- mean change ± S.E. in electrical energy from pre-drug control, Δ band [1, 10]: +89 ± 29 instrument counts
- group percent change in electrical energy from pre-drug control, α band ([1]; 0.125 mg/kg free base s.c.): -18%
- mean change ± S.E. in electrical energy from pre-drug control, α band ([1]; 0.125 mg/kg free base s.c.): -23 ± 12 instrument counts
- group percent change in electrical energy from pre-drug control, α band ([1]; 0.25 mg/kg free base s.c.): -26%
- mean change ± S.E. in electrical energy from pre-drug control, α band ([1]; 0.25 mg/kg free base s.c.): -35 ± 6 instrument counts
- group percent change in electrical energy from pre-drug control, α band ([1]; 0.5 mg/kg free base s.c.): -39%
- mean change ± S.E. in electrical energy from pre-drug control, α band ([1]; 0.5 mg/kg free base s.c.): -47 ± 12 instrument counts
- group percent change in electrical energy from pre-drug control, α band ([1]; 2.0 mg/kg free base s.c.): -15%
- mean change ± S.E. in electrical energy from pre-drug control, α band ([1]; 2.0 mg/kg free base s.c.): -20 ± 14 instrument counts
- group percent change in electrical energy from pre-drug control, α band ([1]; 8.0 mg/kg free base s.c.): -6%
- mean change ± S.E. in electrical energy from pre-drug control, α band ([1]; 8.0 mg/kg free base s.c.): -5 ± 14 instrument counts
- group percent change in electrical energy from pre-drug control, β band ([1]; 0.125 mg/kg free base s.c.): -6%
- mean change ± S.E. in electrical energy from pre-drug control, β band ([1]; 0.125 mg/kg free base s.c.): -6 ± 4 instrument counts
- group percent change in electrical energy from pre-drug control, β band ([1]; 0.25 mg/kg free base s.c.): -17%
- mean change ± S.E. in electrical energy from pre-drug control, β band ([1]; 0.25 mg/kg free base s.c.): -24 ± 5 instrument counts
- group percent change in electrical energy from pre-drug control, β band ([1]; 0.5 mg/kg free base s.c.): -23%
- mean change ± S.E. in electrical energy from pre-drug control, β band ([1]; 0.5 mg/kg free base s.c.): -24 ± 3 instrument counts
- group percent change in electrical energy from pre-drug control, β band ([1]; 2.0 mg/kg free base s.c.): -24%
- mean change ± S.E. in electrical energy from pre-drug control, β band ([1]; 2.0 mg/kg free base s.c.): -33 ± 8 instrument counts
- group percent change in electrical energy from pre-drug control, β band ([1]; 8.0 mg/kg free base s.c.): -21%
- mean change ± S.E. in electrical energy from pre-drug control, β band ([1]; 8.0 mg/kg free base s.c.): -22 ± 7 instrument counts
- group percent change in electrical energy from pre-drug control, γ band ([1]; 0.125 mg/kg free base s.c.): +5%
- mean change ± S.E. in electrical energy from pre-drug control, γ band ([1]; 0.125 mg/kg free base s.c.): +4 ± 3 instrument counts
- group percent change in electrical energy from pre-drug control, γ band ([1]; 0.25 mg/kg free base s.c.): 0%
- mean change ± S.E. in electrical energy from pre-drug control, γ band ([1]; 0.25 mg/kg free base s.c.): -1 ± 3 instrument counts
- group percent change in electrical energy from pre-drug control, γ band ([1]; 0.5 mg/kg free base s.c.): -5%
- mean change ± S.E. in electrical energy from pre-drug control, γ band ([1]; 0.5 mg/kg free base s.c.): -4 ± 4 instrument counts
- group percent change in electrical energy from pre-drug control, γ band ([1]; 2.0 mg/kg free base s.c.): -9%
- mean change ± S.E. in electrical energy from pre-drug control, γ band ([1]; 2.0 mg/kg free base s.c.): -10 ± 3 instrument counts
- group percent change in electrical energy from pre-drug control, γ band ([1]; 8.0 mg/kg free base s.c.): -3%
- mean change ± S.E. in electrical energy from pre-drug control, γ band ([1]; 8.0 mg/kg free base s.c.): -2 ± 3 instrument counts
- group percent change in electrical energy from pre-drug control, θ band ([1]; 0.125 mg/kg free base s.c.): -22%
- mean change ± S.E. in electrical energy from pre-drug control, θ band ([1]; 0.125 mg/kg free base s.c.): -32 ± 16 instrument counts
- group percent change in electrical energy from pre-drug control, θ band ([1]; 0.25 mg/kg free base s.c.): -16%
- mean change ± S.E. in electrical energy from pre-drug control, θ band ([1]; 0.25 mg/kg free base s.c.): -21 ± 6 instrument counts
- group percent change in electrical energy from pre-drug control, θ band ([1]; 0.5 mg/kg free base s.c.): -32%
- mean change ± S.E. in electrical energy from pre-drug control, θ band ([1]; 0.5 mg/kg free base s.c.): -46 ± 14 instrument counts
- group percent change in electrical energy from pre-drug control, θ band ([1]; 2.0 mg/kg free base s.c.): +13%
- mean change ± S.E. in electrical energy from pre-drug control, θ band ([1]; 2.0 mg/kg free base s.c.): +17 ± 15 instrument counts
- group percent change in electrical energy from pre-drug control, θ band ([1]; 8.0 mg/kg free base s.c.): +34%
- mean change ± S.E. in electrical energy from pre-drug control, θ band ([1]; 8.0 mg/kg free base s.c.): +35 ± 15 instrument counts
- clinical response during and after treatment [2, 11]: spectacular and very fast improvement
- sleep disturbance [2, 11]: no sleep disturbance
- clinical response during and after treatment ([2]; with symptoms of attention deficit hyperactivity disorder, 5 mg/kg three times a day): excellent response
- effect on evoked electrographic activity [3]: possessed properties similar to both chlorpromazine and methamphetamine

Reference: patent publication EP0497314A1, “Use of azapirones in attention deficit hyperactivity disorder” (Bristol-Myers Squibb Company, priority 1991, dated 1992)
